# Data published in PubChem BioAssay AID1963833 (Molecular Pharmacology Branch, DTP, NCI, 2024).
# System: 883617-216-R-J1-PDC complex spheroid viability
# Assay: Anticancer human tumor 883617-216-R-J1-PDC patient-derived bladder carcinoma cell line growth inhibition [POLQ]
# Conditions: for IC50: curve of first compound; for viability, T/C: stronger effect = lower value
# Method in brief: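 Growth inhibition in 3D: complex spheroids (tumor PDC, HUVEC, MSC) treated with POLQ inhibitor combinations; where Cmax unknown, highest tested concentration 10 microM, except SN-38 at 1 microM.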
# [1] = second compound 0.0316 µM, first compound 0.0316 µM
# [2] = second compound 0.0316 µM, first compound 0.1 µM
# [3] = second compound 0.0316 µM, first compound 0.316 µM
# [4] = second compound 0.0316 µM, first compound 1 µM
# [5] = second compound 0.0316 µM, first compound 3.16 µM
# [6] = second compound 0.0316 µM, first compound 10 µM
# [7] = second compound 0.1 µM, first compound 0.0316 µM
# [8] = second compound 0.1 µM, first compound 0.1 µM
# [9] = second compound 0.1 µM, first compound 0.316 µM
# [10] = second compound 0.1 µM, first compound 1 µM
# [11] = second compound 0.1 µM, first compound 3.16 µM
# [12] = second compound 0.1 µM, first compound 10 µM
# [13] = second compound 0.316 µM, first compound 0.0316 µM
# [14] = second compound 0.316 µM, first compound 0.1 µM
# [15] = second compound 0.316 µM, first compound 0.316 µM
# [16] = second compound 0.316 µM, first compound 1 µM
# [17] = second compound 0.316 µM, first compound 3.16 µM
# [18] = second compound 0.316 µM, first compound 10 µM
# [19] = second compound 1 µM, first compound 0.0316 µM
# [20] = second compound 1 µM, first compound 0.1 µM
# [21] = second compound 1 µM, first compound 0.316 µM
# [22] = second compound 1 µM, first compound 1 µM
# [23] = second compound 1 µM, first compound 3.16 µM
# [24] = second compound 1 µM, first compound 10 µM
# [25] = second compound 3.16 µM, first compound 0.0316 µM
# [26] = second compound 3.16 µM, first compound 0.1 µM
# [27] = second compound 3.16 µM, first compound 0.316 µM
# [28] = second compound 3.16 µM, first compound 1 µM
# [29] = second compound 3.16 µM, first compound 3.16 µM
# [30] = second compound 3.16 µM, first compound 10 µM
# [31] = second compound 10 µM, first compound 0.0316 µM
# [32] = second compound 10 µM, first compound 0.1 µM
# [33] = second compound 10 µM, first compound 0.316 µM
# [34] = second compound 10 µM, first compound 1 µM
# [35] = second compound 10 µM, first compound 3.16 µM
# [36] = second compound 10 µM, first compound 10 µM
# 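Note: spheroids exposed to compounds for seven days before readout.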
# 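Throughout, for viability, T/C: 100% = DMSO vehicle control viability.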
smiles,measurement,setting,value
C#Cc1c(F)ccc2cc(O)cc(-c3ncc4c(N5CC6CCC(C5)N6)nc(OCC56CCCN5CC(F)C6)nc4c3F)c12 (centres undefined) + Nc1ccc(C#CCN(C(=O)Cc2ncc(C(F)(F)F)cc2C(F)(F)F)c2ccc(F)cc2)nn1,IC50,second compound 0.0316 µM,> 10000 nM
same,IC50,second compound 0.1 µM,> 10000 nM
same,IC50,second compound 0.316 µM,> 10000 nM
same,IC50,second compound 1 µM,> 10000 nM
same,IC50,second compound 3.16 µM,> 10000 nM
same,IC50,second compound 10 µM,> 10000 nM
same,"viability, T/C",[1],82%
same,"viability, T/C",[2],92.8%
same,"viability, T/C",[3],97.7%
same,"viability, T/C",[4],90.3%
same,"viability, T/C",[5],71.7%
same,"viability, T/C",[6],75.1%
same,"viability, T/C",[7],100%
same,"viability, T/C",[8],98.5%
same,"viability, T/C",[9],90.6%
same,"viability, T/C",[10],93.7%
same,"viability, T/C",[11],93%
same,"viability, T/C",[12],81%
same,"viability, T/C",[13],86.8%
same,"viability, T/C",[14],84.2%
same,"viability, T/C",[15],87.8%
same,"viability, T/C",[16],78.7%
same,"viability, T/C",[17],82.1%
same,"viability, T/C",[18],84.8%
same,"viability, T/C",[19],108%
same,"viability, T/C",[20],87.7%
same,"viability, T/C",[21],84.7%
same,"viability, T/C",[22],77.9%
same,"viability, T/C",[23],82.2%
same,"viability, T/C",[24],80.1%
same,"viability, T/C",[25],91.1%
same,"viability, T/C",[26],89.7%
same,"viability, T/C",[27],89.1%
same,"viability, T/C",[28],101%
same,"viability, T/C",[29],102%
same,"viability, T/C",[30],88.1%
same,"viability, T/C",[31],102%
same,"viability, T/C",[32],109%
same,"viability, T/C",[33],113%
same,"viability, T/C",[34],108%
same,"viability, T/C",[35],99.3%
same,"viability, T/C",[36],102%
CC1COCCN1c1cc(C2(O)CC3CCC(C2)O3)c2cnn(-c3ccn[nH]3)c2n1 (centres undefined) + Nc1ccc(C#CCN(C(=O)Cc2ncc(C(F)(F)F)cc2C(F)(F)F)c2ccc(F)cc2)nn1,IC50,second compound 0.0316 µM,214 nM
same,IC50,second compound 0.1 µM,168 nM
same,IC50,second compound 0.316 µM,414 nM
same,IC50,second compound 1 µM,175 nM
same,IC50,second compound 3.16 µM,218 nM
same,IC50,second compound 10 µM,269 nM
same,"viability, T/C",[1],70.8%
same,"viability, T/C",[2],50.9%
same,"viability, T/C",[3],48%
same,"viability, T/C",[4],38.4%
same,"viability, T/C",[5],35%
same,"viability, T/C",[6],22.9%
same,"viability, T/C",[7],75.2%
same,"viability, T/C",[8],50.6%
same,"viability, T/C",[9],40.9%
same,"viability, T/C",[10],44.2%
same,"viability, T/C",[11],34.9%
same,"viability, T/C",[12],23.8%
same,"viability, T/C",[13],68.8%
same,"viability, T/C",[14],63.2%
same,"viability, T/C",[15],47.8%
same,"viability, T/C",[16],42.9%
same,"viability, T/C",[17],37.5%
same,"viability, T/C",[18],21.9%
same,"viability, T/C",[19],60.9%
same,"viability, T/C",[20],51.9%
same,"viability, T/C",[21],45.1%
same,"viability, T/C",[22],39.9%
same,"viability, T/C",[23],32.3%
same,"viability, T/C",[24],20.9%
same,"viability, T/C",[25],67%
same,"viability, T/C",[26],60.2%
same,"viability, T/C",[27],45.2%
same,"viability, T/C",[28],33.8%
same,"viability, T/C",[29],38.7%
same,"viability, T/C",[30],26.9%
same,"viability, T/C",[31],73.1%
same,"viability, T/C",[32],53.1%
same,"viability, T/C",[33],53.1%
same,"viability, T/C",[34],41.5%
same,"viability, T/C",[35],39.2%
same,"viability, T/C",[36],35.3%
